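Values below derive from 48-hour exposures of cells grown in 96-well plates, with endpoints linearly interpolated between the two concentrations bracketing the appropriate inhibition level. GI50 marks 50% less growth. TGI: concentration producing complete growth inhibition.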

Common to all, as to test: NCI anticancer screen, dose series, 48 h
In experiment [1] the test system is SF-295 CNS.
Experiment [2] concerns EKVX NSCLC.
In experiment [3] the test system is RXF 393 renal.
Experiment [4] concerns 786-0 renal.
The test system of experiment [5] is A498 renal.
Experiment [6] deals with NCI-H226 lung.
Experiment [7] concerns UO-31 renal.
The test system of experiment [8] is HL-60(TB) leukemia.
The subject of experiment [9] is SK-MEL-2 melanoma.
Experiment [10] concerns SR leukemia.

Regarding `CCCCCCCCCC1C(C)c2c([nH]c3ccccc23)C2C(=O)N(c3ccccc3)C(=O)C21` (centres undefined), the TGI in experiment [1] was 28.9 µM; in [2] it was greater than 100 µM; in experiment [3], 5.55 µM; in [4], 25.1 µM; in experiment [5] it was 33.8 µM; in experiment [6] it was 24.9 µM. In addition, the TGI in [7] stood at 26.8 µM; in experiment [8], 13.4 µM; in experiment [9] it was 32.2 µM.
On to `COc1ccc(-c2cc(-c3cn[nH]c3-c3ccccn3)ccn2)cc1`, for which the GI50 in [1], in [2], in experiment [3], in experiment [4], in [5] and in experiment [6] was greater than 25 µM throughout. Further, the GI50 is 20.4 µM in experiment [7], greater than 25 µM in experiment [8] and greater than 25 µM in experiment [9]. The TGI in [1], in [2], in experiment [3], in experiment [4], in experiment [5] and in experiment [6] was greater than 25 µM throughout. In addition, the TGI in experiment [7], in experiment [8] and in experiment [9] was greater than 25 µM each time.
Turning to `CC(C)(C)OC(=O)NC1CCC[C@H]1O` (some centres undefined), the TGI in experiment [1], in experiment [2], in experiment [3], in experiment [4], in experiment [5] and in experiment [6] was greater than 100 µM in each case. The TGI in [7], in experiment [9] and in experiment [10] was greater than 100 µM in each case.
Consider `Cc1ccc2c(Nc3cccc(Cl)c3F)ncc(NC(=O)c3csc4c(N)ncnc34)c2c1`, for which the GI50 in experiment [1] is greater than 100 µM; in experiment [2], greater than 100 µM; in [3], greater than 100 µM; in experiment [4] it was greater than 100 µM; in experiment [6], greater than 100 µM; in experiment [7], 0.291 µM. In addition, the GI50 is 0.0656 µM in experiment [8] and 0.0856 µM in [9]. Besides, the TGI in experiment [1], in experiment [2], in experiment [3], in [4], in experiment [6] and in [7] was greater than 100 µM throughout. The TGI in experiment [8] and in [9] was greater than 100 µM in each case.
With `O=Cc1ccc(Oc2c3ccccc3nc3occc23)cc1`, the GI50 in [1] was 14.4 µM; in experiment [3] it was 2.32 µM; in [4] it was 18.7 µM; in experiment [7], 26.4 µM; in experiment [8] it was 22.9 µM; in [10], 16 µM. For the same molecule, the TGI in [1] is 36.8 µM; in [3], 9.17 µM; in [4] it was 54.5 µM; in [7], greater than 100 µM; in [8], 56.9 µM; in [10] it was 44.7 µM.
As to `CC[C@H](C)[C@H](NC(=O)Nc1ccccc1)C(=O)N(C)[C@H](C[C@@H](OC(C)=O)c1nc(C(=O)N[C@@H](Cc2ccccc2)C[C@H](C)C(=O)OC)cs1)C(C)C`, the GI50 in [1] is 2.76 µM; in [2], 5.36 µM; in experiment [3] it was 1.95 µM; in [4] it was 3.56 µM; in experiment [6], 8.83 µM; in [7], 6.82 µM. The GI50 in [9] is 3.17 µM. Also, the TGI in experiment [1] is greater than 100 µM; in [2] it was greater than 100 µM; in [3], 7.25 µM; in [4] it was greater than 100 µM; in experiment [6] it was greater than 100 µM; in [7] it was greater than 100 µM. For the same molecule, in experiment [9], the TGI is greater than 100 µM.
For `CC(=O)OCC1OC(n2c(=O)n(-c3ccccc3)c(=O)c3cc(Br)cc(Br)c32)C(OC(C)=O)C(OC(C)=O)C1OC(C)=O` (centres undefined), the TGI in [1], in experiment [2], in [3], in experiment [4], in experiment [5] and in [6] was greater than 100 µM in each case. Further, the TGI in experiment [7], in [8] and in experiment [9] was greater than 100 µM each time.
Turning to `Nc1ccc2c(c1)CC1c3ccccc3C(C2)c2ccccc21`, the TGI in [1], in experiment [3], in experiment [4], in experiment [5], in [7] and in [8] was greater than 100 µM in each case. This molecule gave a TGI in experiment [9] greater than 100 µM.
In the case of `CCOC(=O)C(=Cc1cc(OC)ccc1OC)C(=O)OCC`, the TGI in [1] was 26.5 µM; in experiment [2] it was 31.3 µM; in experiment [3], 6.2 µM; in experiment [4] it was 14.1 µM; in [5] it was 28.5 µM; in experiment [6], 27 µM. The TGI was determined as 6.12 µM in experiment [8] and 18.1 µM in [9].
Consider `O=C1c2cc3c(cc2[C@@H]2[C@H]1c1ccc([N+](=O)[O-])cc1C(=O)N2CCCCl)OCO3`, for which the GI50 in experiment [1], in [2], in [3], in [4], in experiment [5] and in experiment [6] was less than 0.01 µM throughout. The results for the GI50 in experiment [7] and in experiment [9] were less than 0.01 µM and 0.0827 µM, respectively. The TGI was 11.4 µM in experiment [1]; greater than 100 µM in experiment [2]; 10.1 µM in [3]; less than 0.0135 µM in experiment [4]; less than 0.01 µM in experiment [5]; 0.136 µM in experiment [6]. This molecule also displayed a TGI in [9] greater than 100 µM.
On to `CCOC(=O)C(Cc1ccccc1)NC(=O)OC(C)(C)C` (centres undefined), for which the TGI in [1], in experiment [4], in experiment [5], in [7], in experiment [8] and in experiment [9] was greater than 100 µM throughout.
On to `C[C@]12CCC3c4ccc(O)cc4CCC3C1Cc1ccc(O)cc12` (some centres undefined), for which the GI50 is 12.8 µM in [1]; 6.24 µM in [2]; 5.22 µM in [4]; 6.18 µM in experiment [5]; 19 µM in experiment [6]; 11.8 µM in experiment [7]. For the same molecule, the GI50 in [8] is 1.08 µM; in [9] it was 11 µM. The TGI in experiment [1] worked out at 34.2 µM; in [2], 18.9 µM; in experiment [4], 18.1 µM; in experiment [5], 19.7 µM; in [6], 36.6 µM; in experiment [7], 28.7 µM. Moreover, the TGI worked out at 3.29 µM in [8] and 26.3 µM in experiment [9].

(Values after PubChem BioAssay (NCI).)
